Our source for the remaining binding values is article PMC7206119, “RIP1 inhibition blocks inflammatory diseases but not tumor growth or metastases” (Cell Death and Differentiation, 2019).

Targets include ALK(C1156Y) (Homo sapiens, UniProt Q9UM73, C1156Y); CAMK2D (Homo sapiens, UniProt Q13557); CAMKK2 (Homo sapiens, UniProt Q96RR4); CLK4 (Homo sapiens, UniProt Q9HAZ1); EPHA6 (Homo sapiens, UniProt Q9UF33); FLT3(D835H) (Homo sapiens, UniProt P36888, D835H); FLT3-autoinhibited (Homo sapiens, UniProt P36888); INSRR (Homo sapiens, UniProt P14616); MARK1 (Homo sapiens, UniProt Q9P0L2); PIK3CA (Homo sapiens, UniProt P42336); PIK3CA(M1043I) (Homo sapiens, UniProt P42336, M1043I); PRKD3 (Homo sapiens, UniProt O94806); RIPK4 (Homo sapiens, UniProt P57078); SRPK2 (Homo sapiens, UniProt P78362); TESK1 (Homo sapiens, UniProt Q15569); TNK1 (Homo sapiens, UniProt Q13470).

Holding throughout (assay): biochemical
Common to all, as to set-up: DiscoverX kinase panel, active-site competition binding (KINOMEscan type), percent of control at one concentration
Conditions in all cases: competition binding, percent of control

Test [1] has as its target EGFR(L747-S752del, P753S) (Homo sapiens, UniProt P00533, DEL747-752/P753S).
In the next test the target is T1, JNK3 (Homo sapiens, UniProt P53779).
T1 construct: gene MAPK10

A further test addresses T2, RIPK5 (Homo sapiens, UniProt Q6XUX3).
T2 construct: gene DSTYK

The target of a further test is T3, SIK (Homo sapiens, UniProt P57059).
T3 construct: gene SIK1

In the next test the target is T4, TRKB (Homo sapiens, UniProt Q16620).
T4 construct: gene NTRK2
T4 sequence (Q16620 whole entry): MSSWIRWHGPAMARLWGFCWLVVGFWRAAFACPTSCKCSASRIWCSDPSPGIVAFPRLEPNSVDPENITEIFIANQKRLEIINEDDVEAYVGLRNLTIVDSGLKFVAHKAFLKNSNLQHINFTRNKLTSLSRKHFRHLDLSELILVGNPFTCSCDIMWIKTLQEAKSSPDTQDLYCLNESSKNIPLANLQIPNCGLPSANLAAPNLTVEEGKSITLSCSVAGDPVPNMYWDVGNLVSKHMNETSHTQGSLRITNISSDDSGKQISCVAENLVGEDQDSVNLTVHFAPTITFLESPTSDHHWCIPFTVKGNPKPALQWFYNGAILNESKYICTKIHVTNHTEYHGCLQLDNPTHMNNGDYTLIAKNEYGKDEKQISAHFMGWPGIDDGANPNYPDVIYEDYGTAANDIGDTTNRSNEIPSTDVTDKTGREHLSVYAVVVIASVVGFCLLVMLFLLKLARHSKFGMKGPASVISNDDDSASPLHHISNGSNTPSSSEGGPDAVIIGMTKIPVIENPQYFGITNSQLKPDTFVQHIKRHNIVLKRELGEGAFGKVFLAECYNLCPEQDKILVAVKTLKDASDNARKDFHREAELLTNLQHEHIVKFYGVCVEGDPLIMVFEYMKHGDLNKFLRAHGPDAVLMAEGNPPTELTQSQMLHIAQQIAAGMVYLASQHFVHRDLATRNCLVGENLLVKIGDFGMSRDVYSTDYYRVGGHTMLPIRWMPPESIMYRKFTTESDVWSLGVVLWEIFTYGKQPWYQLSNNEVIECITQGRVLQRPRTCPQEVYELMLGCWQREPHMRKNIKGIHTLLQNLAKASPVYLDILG

T3 sequence (P57059 whole entry): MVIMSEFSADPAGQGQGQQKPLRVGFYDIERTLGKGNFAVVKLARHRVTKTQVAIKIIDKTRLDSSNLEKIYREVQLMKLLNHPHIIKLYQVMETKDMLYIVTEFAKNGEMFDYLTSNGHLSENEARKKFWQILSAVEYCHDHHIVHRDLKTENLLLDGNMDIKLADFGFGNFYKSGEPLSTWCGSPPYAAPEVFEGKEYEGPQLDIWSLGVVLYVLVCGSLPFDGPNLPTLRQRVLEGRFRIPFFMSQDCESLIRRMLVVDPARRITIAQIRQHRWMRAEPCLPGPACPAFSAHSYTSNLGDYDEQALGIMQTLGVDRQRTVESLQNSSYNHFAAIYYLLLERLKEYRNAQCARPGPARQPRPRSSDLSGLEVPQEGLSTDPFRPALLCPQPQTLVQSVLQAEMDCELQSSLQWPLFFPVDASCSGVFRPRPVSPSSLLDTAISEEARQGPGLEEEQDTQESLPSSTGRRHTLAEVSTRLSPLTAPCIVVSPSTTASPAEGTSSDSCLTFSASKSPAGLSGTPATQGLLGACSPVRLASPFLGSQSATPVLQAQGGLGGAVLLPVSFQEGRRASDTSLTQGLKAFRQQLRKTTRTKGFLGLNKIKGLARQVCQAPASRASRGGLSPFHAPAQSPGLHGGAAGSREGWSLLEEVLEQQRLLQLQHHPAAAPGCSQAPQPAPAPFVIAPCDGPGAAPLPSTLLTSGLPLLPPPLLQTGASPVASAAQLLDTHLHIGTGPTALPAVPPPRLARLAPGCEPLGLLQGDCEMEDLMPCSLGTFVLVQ
Chain of RIPK4 (P57078 whole entry): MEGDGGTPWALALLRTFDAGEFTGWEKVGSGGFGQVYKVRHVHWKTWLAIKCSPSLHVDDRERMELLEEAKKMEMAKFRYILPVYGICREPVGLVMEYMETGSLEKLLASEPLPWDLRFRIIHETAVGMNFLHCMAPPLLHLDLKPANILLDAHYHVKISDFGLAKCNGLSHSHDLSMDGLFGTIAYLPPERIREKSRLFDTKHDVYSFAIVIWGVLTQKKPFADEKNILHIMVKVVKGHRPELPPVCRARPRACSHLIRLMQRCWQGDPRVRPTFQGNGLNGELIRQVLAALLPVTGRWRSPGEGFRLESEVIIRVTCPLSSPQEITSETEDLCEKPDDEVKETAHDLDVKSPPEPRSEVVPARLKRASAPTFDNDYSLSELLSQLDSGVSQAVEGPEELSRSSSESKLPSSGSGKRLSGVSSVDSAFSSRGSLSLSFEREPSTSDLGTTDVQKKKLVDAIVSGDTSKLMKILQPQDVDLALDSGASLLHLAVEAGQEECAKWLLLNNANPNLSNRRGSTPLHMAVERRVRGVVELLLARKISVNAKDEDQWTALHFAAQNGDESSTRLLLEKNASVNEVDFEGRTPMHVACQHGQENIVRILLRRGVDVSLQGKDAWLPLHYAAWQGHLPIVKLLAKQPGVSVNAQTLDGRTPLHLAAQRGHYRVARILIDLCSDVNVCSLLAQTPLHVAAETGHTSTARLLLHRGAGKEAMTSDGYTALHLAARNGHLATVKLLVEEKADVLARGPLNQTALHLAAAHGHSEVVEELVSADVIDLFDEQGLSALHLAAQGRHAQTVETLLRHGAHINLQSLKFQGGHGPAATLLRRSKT
Chain of CLK4 (Q9HAZ1 whole entry): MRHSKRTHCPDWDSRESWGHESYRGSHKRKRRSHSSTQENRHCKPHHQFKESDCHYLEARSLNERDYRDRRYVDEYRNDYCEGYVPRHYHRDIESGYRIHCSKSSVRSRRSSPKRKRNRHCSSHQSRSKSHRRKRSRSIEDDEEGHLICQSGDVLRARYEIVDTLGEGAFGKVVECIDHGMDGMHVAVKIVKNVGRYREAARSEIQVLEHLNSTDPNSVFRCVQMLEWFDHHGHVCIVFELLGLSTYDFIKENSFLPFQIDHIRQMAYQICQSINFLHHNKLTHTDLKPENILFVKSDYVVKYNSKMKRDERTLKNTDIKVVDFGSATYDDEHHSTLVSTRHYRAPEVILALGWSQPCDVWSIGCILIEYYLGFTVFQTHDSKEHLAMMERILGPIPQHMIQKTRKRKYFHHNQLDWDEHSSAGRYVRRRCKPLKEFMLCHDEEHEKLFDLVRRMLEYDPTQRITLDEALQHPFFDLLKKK
Chain of TESK1 (Q15569 whole entry): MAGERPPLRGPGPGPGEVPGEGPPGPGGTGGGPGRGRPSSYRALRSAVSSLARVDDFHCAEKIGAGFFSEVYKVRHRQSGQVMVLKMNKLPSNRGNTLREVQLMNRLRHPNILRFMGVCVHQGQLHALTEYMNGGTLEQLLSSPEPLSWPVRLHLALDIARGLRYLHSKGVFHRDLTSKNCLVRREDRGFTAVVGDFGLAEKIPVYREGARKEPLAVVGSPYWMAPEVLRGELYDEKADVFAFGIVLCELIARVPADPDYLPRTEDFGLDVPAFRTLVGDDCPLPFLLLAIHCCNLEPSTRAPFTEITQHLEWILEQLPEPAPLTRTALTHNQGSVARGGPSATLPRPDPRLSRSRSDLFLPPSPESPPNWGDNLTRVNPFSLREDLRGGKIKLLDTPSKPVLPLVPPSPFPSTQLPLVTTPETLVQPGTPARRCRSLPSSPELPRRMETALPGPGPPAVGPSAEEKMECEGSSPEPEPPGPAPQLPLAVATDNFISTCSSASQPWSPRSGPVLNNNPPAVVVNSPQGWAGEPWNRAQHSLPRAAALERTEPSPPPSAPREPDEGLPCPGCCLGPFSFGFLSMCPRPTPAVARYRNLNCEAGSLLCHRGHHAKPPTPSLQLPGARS
Chain of INSRR (P14616 whole entry): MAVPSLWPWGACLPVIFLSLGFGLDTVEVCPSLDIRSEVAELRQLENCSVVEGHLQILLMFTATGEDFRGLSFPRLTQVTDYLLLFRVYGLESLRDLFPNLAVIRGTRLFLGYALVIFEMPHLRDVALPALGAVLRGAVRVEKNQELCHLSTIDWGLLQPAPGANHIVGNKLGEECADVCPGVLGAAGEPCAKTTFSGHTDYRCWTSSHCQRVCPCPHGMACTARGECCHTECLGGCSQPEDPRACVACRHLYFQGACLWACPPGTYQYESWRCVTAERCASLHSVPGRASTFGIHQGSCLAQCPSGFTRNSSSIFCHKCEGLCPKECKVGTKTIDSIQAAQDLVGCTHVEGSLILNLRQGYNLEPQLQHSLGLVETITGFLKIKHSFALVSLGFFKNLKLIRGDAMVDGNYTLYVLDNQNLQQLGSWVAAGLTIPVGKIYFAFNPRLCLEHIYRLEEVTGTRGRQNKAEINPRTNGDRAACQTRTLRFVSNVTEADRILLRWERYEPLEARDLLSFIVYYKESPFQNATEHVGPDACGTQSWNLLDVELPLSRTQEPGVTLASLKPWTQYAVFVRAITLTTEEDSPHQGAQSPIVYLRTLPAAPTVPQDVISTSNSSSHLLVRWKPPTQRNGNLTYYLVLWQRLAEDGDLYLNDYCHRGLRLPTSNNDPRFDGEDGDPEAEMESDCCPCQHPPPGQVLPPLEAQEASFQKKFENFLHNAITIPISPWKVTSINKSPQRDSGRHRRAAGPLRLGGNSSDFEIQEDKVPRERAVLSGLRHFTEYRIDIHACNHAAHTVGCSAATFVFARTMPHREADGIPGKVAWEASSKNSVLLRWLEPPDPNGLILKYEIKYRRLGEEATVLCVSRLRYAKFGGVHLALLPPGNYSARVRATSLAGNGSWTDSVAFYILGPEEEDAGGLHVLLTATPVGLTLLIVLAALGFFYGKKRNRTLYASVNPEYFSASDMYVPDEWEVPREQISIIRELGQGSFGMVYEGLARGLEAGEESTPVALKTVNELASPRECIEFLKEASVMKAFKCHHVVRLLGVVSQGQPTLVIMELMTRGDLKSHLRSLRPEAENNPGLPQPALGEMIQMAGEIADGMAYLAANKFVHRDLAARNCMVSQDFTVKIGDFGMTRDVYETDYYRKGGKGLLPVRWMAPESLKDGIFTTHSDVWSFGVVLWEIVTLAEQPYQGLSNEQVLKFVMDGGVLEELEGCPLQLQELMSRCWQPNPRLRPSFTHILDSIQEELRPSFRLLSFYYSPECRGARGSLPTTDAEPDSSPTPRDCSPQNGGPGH

Take `COc1cc2c(cn1)N(C)C(=O)[C@@H](NC(=O)c1nc3n(n1)[C@H](c1ccccc1)CC3)CC2` [GNE684, (S)-N-((S)-7-methoxy-1-methyl-2-oxo-2,3,4,5-tetrahydro-1H-pyrido[3,4-b]azepin-3-yl)-5-phenyl-6,7-dihydro-5H-pyrrolo[1,2-b][1,2,4]triazole-2-carboxamide]: the remaining binding at 10 µM at ALK(C1156Y) worked out at 96%; at CAMK2D, 100%; on CAMKK2 it was 100%; at CLK4, 95%; in [1], 100%; at EPHA6, 100%. For the same compound, the remaining binding at 10 µM at FLT3(D835H) was determined as 94%; on FLT3-autoinhibited, 100%; on INSRR, 92%; on JNK3 it was 98%; on MARK1 it was 69%; at PIK3CA it was 100%. For the same compound, the remaining binding at 10 µM on PIK3CA(M1043I) came out at 99%; on PRKD3 it was 100%; on RIPK4, 100%; on RIPK5 it was 48%; at SIK, 100%; at SRPK2 it was 100%. Further, the remaining binding at 10 µM was 94% at TESK1, 100% on TNK1 and 83% on TRKB.
